Source: US9512486B2, “Materials, methods, and systems for treating cancer” (The Institute of Cancer Research: Royal Cancer Hospital, priority 2012, dated 2016)

Key:
Assay type in all cases: cell-based
[1] = tested on: CHO cells mutated in RAD51D; assay: Olaparib sensitivity of wild-type versus RAD51D mutated CHO cells, cell viability; settings: CHO RAD51D WT (51D1.3 clone) vs RAD51D deficient CHO (51D1 clone), olaparib for 7 days, FIG. 3C
Source text: (§1) This method has clinical utility both for individuals with cancer and their relatives. Cancer patients with RAD51D mutations may benefit from specific therapies such as Poly (ADP-Ribose) Polymerase (PARP) inhibitors, which have shown efficacy in patients with impairment of HR due to mutations in BRCA1 or BRCA2. To investigate this we used RNA interference (RNAi) and assessed the relationship between RAD51D loss of function and the sensitivity of tumor cells to a clinical PARP inhibitor, olaparib (AstraZeneca) 4-[(3-[(4-cyclopropylcarbonyl)piperazin-4-yl]carbonyl)-4-fluorophenyl]methyl(2H)phthalazin-1-one. Referring now to FIG. 3. The effect of RAD51D silencing on olaparib sensitivity. CAL51 (FIG. 3A) or MCF7 (FIG. 3B) cells were transfected with siCONTROL, siRNA directed against RAD51D or siRNA directed against BRCA2 and then treated with olaparib for 7 days before assaying for cell viability. Wild-type CHO cells or CHO cells mutated in RAD51D were treated with olaparib for 7 days before assaying for cell viability (FIG. 3C).
(§2) Non-silencing BRCA2 and RAD51D SIGENOME siRNAs (Dharmacon, Lafayette, Colo., USA) were used. […] After 7 days continuous culture, cell viability was estimated using Cell TitreGlo reagent (Promega Madison, Wis., USA) and surviving fractions calculated as previously described.

[2] = tested on: CAL51 cells transfected with siRNA directed against RAD51D; assay: Olaparib sensitivity after RAD51D silencing, cell viability (Cell TitreGlo), CAL51; settings: siRAD51D vs siCONTROL and siBRCA2, olaparib titration for 7 days, FIG. 3A
Source text: as §1, §2

[3] = tested on: MCF7 cells transfected with siRNA directed against RAD51D; assay: Olaparib sensitivity after RAD51D silencing, cell viability (Cell TitreGlo), MCF7; settings: siRAD51D vs siCONTROL and siBRCA2, olaparib titration for 7 days, FIG. 3B
Source text: as §1, §2

O=C(c1cc(Cc2n[nH]c(=O)c3ccccc23)ccc1F)N1CCN(C(=O)C2CC2)CC1 [olaparib, 4-[(3-[(4-cyclopropylcarbonyl)piperazin-4-yl]carbonyl)-4-fluorophenyl]methyl(2H)phthalazin-1-one]
olaparib sensitivity (Surviving Fraction) [1]: RAD51D selective effect
olaparib sensitivity (Surviving Fraction) ([1]; listed as Olaparib): particularly effective in causing the death of cells that have an inactivating mutation of RAD51D
olaparib sensitivity (Surviving Fraction) [2]: olaparib sensitivity of a magnitude similar to that achieved using silencing of BRCA2
olaparib sensitivity (Surviving Fraction) [3]: olaparib sensitivity of a magnitude similar to that achieved using silencing of BRCA2
